The source of these data is ChEMBL document CHEMBL3301361, “Experimental in vitro DMPK and physicochemical data on a set of publicly disclosed compounds”.

The data set is described as follows: physchem. The conditions noted are these: octan-1-ol/water.

The logD is lipophilicity at a set pH, counting ionised and neutral species. Read a low logD as a more hydrophilic compound. For the setting “pH 7.4, LogD7.4”, `Clc1cccc(Cl)c1/C(=C/n1cncn1)OC1CCCCCC1` showed a logD of 4.1.

In turn, `Cc1nc(C(=O)N2CCCC3(CCN(Cc4ccccc4)CC3)C2)cs1` yielded a log distribution coefficient (logD) (pH 7.4, LogD7.4) of 0.24.

Regarding `Cc1cc(S(=O)(=O)N2CCN(C)CC2)ccc1-c1cnc(N)c(C(=O)Nc2cccnc2)n1`, the logD (pH 7.4, LogD7.4) turned out to be 2.6.

`C[C@@](O)(C(=O)Nc1ccc(S(=O)(=O)NCCCO)cc1Cl)C(F)(F)F` came in with a logD (pH 7.4, LogD7.4) of 2.1.

Where the note is “pH 7.4, LogD7.4”, `CN1CCCCC1CCN1c2ccccc2Sc2ccc([S+](C)[O-])cc21` (stereo not drawn) [MESORIDAZINE] registered a pH-dependent lipophilicity (logD) of 1.6.

`CC[C@H](NC(=O)c1c(CS(C)(=O)=O)c(-c2ccccc2)nc2ccccc12)c1ccccc1` showed a logD (pH 7.4, LogD7.4) of 3.25.

With `O=c1ccoc2cc(OCc3ccccc3)ccc12`, for the setting “pH 7.4, LogD7.4”, the logD was found to be 3.33.

`CCN(CCO)CCCC(C)Nc1ccnc2cc(Cl)ccc12` (stereo not drawn) [HYDROXYCHLOROQUINE] came in with a pH-dependent lipophilicity (logD) (pH 7.4, LogD7.4) of 0.77.

As for `COCCCOc1ccnc(C[S+]([O-])c2nc3ccccc3[nH]2)c1C` (stereo not drawn) [RABEPRAZOLE], under “pH 7.4”, the log distribution coefficient (logD) was -0.69.

`Oc1ccc(-c2cnc3ccccc3n2)cc1` returned a logD (pH 7.4, LogD7.4) of 3.3.

`CCCN1CCN(c2ccc(C(=O)NC3(C(=O)NCC#N)CCCCC3)cc2)CC1` [BALICATIB] had a pH-dependent lipophilicity (logD) (pH 7.4, LogD7.4) of 1.33.

With `COc1cc(Nc2nccc(Oc3cnc4ccccc4c3)n2)cc(OC)c1OC`, the logD (pH 7.4, LogD7.4) was determined as 3.41.

Regarding `COc1cc(OC2CCN(C)CC2)c2c(Nc3cccc4c3OCCO4)ncnc2c1`, the logD (pH 7.4, LogD7.4) was determined as 2.26.

On to `NC(N)=Nc1nc(CSCCC(N)=NS(N)(=O)=O)cs1` [FAMOTIDINE], for which the log distribution coefficient (logD) (pH 7.4, LogD7.4) is -0.6.

Under “pH 7.4”, `CN(C(=O)Cc1ccc(Cl)c(Cl)c1)[C@H](CN1CCCC1)c1ccccc1` [ICI-199,441] displayed a logD of 3.42.

For the molecule `CC(=O)NC1CC2CCCC(C1)N2C(=O)Nc1ccc(Cl)c(C(F)(F)F)c1` (stereo not drawn), the log distribution coefficient (logD) (pH 7.4) turned out to be 2.79.

In turn, `NC(=O)c1cnc2[nH]c(-c3ccc(OCCN4CCCCC4)cc3)nc2c1NCCCNC(=O)C1CCC1` displayed a log distribution coefficient (logD) (pH 7.4, LogD7.4) of 2.48.

Molecule `COc1ccc(-c2ccc3c(N4CCOC[C@@H]4C)nc(-n4ccnc4)nc3n2)cc1CO` showed a pH-dependent lipophilicity (logD) (pH 7.4, LogD7.4) of 2.6.

`O=C(O)c1ccc2cccc(O)c2n1` showed a log distribution coefficient (logD) (pH 7.4, LogD7.4) of 3.3.

`C=CCn1c(=O)c2c(-c3nc(C#N)cn3C)n(Cc3ccnc4ccc(Cl)cc34)nc2n(CC2CC2)c1=O` yielded a logD (pH 7.4, LogD7.4) of 3.92.

On to `COc1cc2ncnc(Nc3cccc(C)c3)c2cc1OC`, for which, under “pH 7.4, LogD7.4”, the logD amounted to 3.5.

`O=S(=O)(NCCNc1ncccn1)c1cccc2cnccc12`: where the note is “pH 7.4, LogD7.4”, the log distribution coefficient (logD) was 0.61.

As for `O=c1cc(O)oc2c1c(=O)n(Cc1ccccc1)c1ccccc21`, the pH-dependent lipophilicity (logD) (pH 7.4) came out at 1.97.

In turn, `CN1CCOc2cc(COc3ccccc3)cnc21` had a logD (pH 7.4, LogD7.4) of 3.3.

For the setting “pH 7.4, LogD7.4”, `Nc1ncc(-c2ccc(F)cc2)[nH]1` yielded a pH-dependent lipophilicity (logD) of 1.39.

For `COc1cc(OC)cc(-c2cc3cnc(N)nc3nc2N)c1`, the log distribution coefficient (logD) (pH 7.4, LogD7.4) turned out to be 2.14.

Consider `CC(O)(C(=O)Nc1ccc(S(=O)(=O)c2ccc(F)cc2)cc1)C(F)(F)F` (stereo not drawn), for which the logD (pH 7.4, LogD7.4) came to 3.12.

`CC(=O)Nc1nc(N)n(-c2ccccc2)n1` gave a logD (pH 7.4, LogD7.4) of -0.2.

Molecule `COc1cc2nnc(C(N)=O)c(Nc3cc(C)ccc3F)c2cc1N1CCN(C)CC1` gave a log distribution coefficient (logD) (pH 7.4, LogD7.4) of 2.57.

In the case of `CC(C)C(NC(=O)Cn1c(-c2ccccc2)ccc(NC(=O)NCc2ccncc2)c1=O)C(=O)C(F)(F)F` (stereo not drawn), for the setting “pH 7.4, LogD7.4”, the pH-dependent lipophilicity (logD) worked out at 2.16.

In the case of `CC(C)c1nc(CN(C)C(=O)N[C@H](C(=O)N[C@@H](Cc2ccccc2)C[C@H](O)[C@H](Cc2ccccc2)NC(=O)OCc2cncs2)C(C)C)cs1` [RITONAVIR], the logD (pH 7.4, LogD7.4) was found to be 4.3.

`Cc1ccc(C(=O)N(CCCN)Cc2nc3cc(Cl)ccc3c(=O)n2Cc2ccccc2)cc1` registered a logD (pH 7.4, LogD7.4) of 1.47.

`CN(CC[C@@H](Oc1ccc(-c2ccccc2)cc1)c1ccc(F)cc1)CC(=O)O`: the log distribution coefficient (logD) (pH 7.4, LogD7.4) worked out at 2.86.

Under “pH 7.4, LogD7.4”, `OC(c1ccccc1)c1cccnc1` (stereo not drawn) gave a log distribution coefficient (logD) of 1.72.

Where the note is “pH 7.4, LogD7.4”, `O=c1c(-c2ccc(O)c(O)c2)coc2cc(O)ccc12` gave a logD of 1.88.

On to `NNCCc1ccccc1` [PHENELZINE], for which the log distribution coefficient (logD) (pH 7.4, LogD7.4) was -0.01.

`COC(=O)CCCCCCC(=O)Nc1ccc2c(c1)-c1ccccc1C(=O)C2=O` came in with a logD (pH 7.4, LogD7.4) of 2.6.

Molecule `CNc1nc2nc(SCc3cccc(F)c3F)nc(N[C@H](C)CO)c2s1` came in with a logD (pH 7.4, LogD7.4) of 3.7.
